{"source": "patent US20250108064A1", "about": "“PHOSPHATE PRODRUGS OF CANNABINOIDS” (priority 2021, published 2025)", "type_in_all_cases": "in vitro ADME", "key": {"[1]": {"assay": "Liver microsome stability assay (HLM)", "details": "human, microsomes, pH 7.4; 3 μM test compound, NADPH; read-out: T½ in HLM", "protocol": "(§1) General Experimental: Human and mouse liver microsomes were purchased from Xenotech at 20 mg/mL. NADPH (Sigma-Aldrich) 10 mM stocks were prepared in deionized water.\n(§2) Procedure for Liver Microsome Stability Assay: Test compounds and positive controls were dissolved in 100% DMSO to make 10 mM stock solutions. Verapamil (Sigma-Aldrich) and diphenhydramine (Sigma-Aldrich) were used as positive controls for both human liver microsomes (HLM) and mouse liver microsomes (MLM). The 10 mM stock solutions of test and control compounds were further diluted in potassium phosphate buffer (100 mM, pH 7.4) to 500 μM to ensure that the organic solvent content was <0.2%. The liver microsome (HLM or MLM) assay was prepared in a 1.5 mL Eppendorf tube with a final volume of 1100 μL for duplicate runs. Each reaction contained phosphate buffer (928.4 μL), liver microsomes (55 μL), and test compound (6.6 μL of 500 μM), resulting in a final concentration of 3 μM for the test compound. The reaction was initiated with 110 μL of 10 mM NADPH. Aliquots (100 μL) were removed in duplicate at 0, 5, 10, 15, and 30 min and quenched in […] of 100% cold methanol which contained internal standard (ISTD: d5-7-ethoxy coumarin 2 μM). The aliquots were centrifuged at 12,000 g for 5 min, and the supernatant was transferred and placed in an LC-MS vial. Each time point was assessed by LC-MS/MS, and the area under the m/z curve (AUC), based on the MRM transition, was integrated w.r.t the ISTD. Positive controls were conducted at a final volume of 550 μL to enable a single run for each time point. Negative controls in the absence of NADPH were performed with the test and control compounds, respectively, at a final volume of 150 μL and measured at the most prolonged time point. Control compounds were processed and analyzed like test compounds. Each time point was run in triplicates on LC-MS/MS followed by in-between blank washes to avoid the carryover and to equilibrate the column. Half-life (T1/2) was calculated using the data obtained from LC-MS/MS and by plotting ln (% remaining of the parent prodrug) versus time and performing linear regression to determine slope. Slope=−k and T1/2=0.693/k for first-order kinetics."}, "[2]": {"assay": "Liver microsome stability assay (MLM)", "details": "mouse, mouse liver microsomes, pH 7.4; 3 μM test compound, NADPH; read-out: T 1/2 in MLM", "protocol": "as §1\nas §2, with “Each time point was run in triplicates on LC-MS/MS followed by in-between blank washes to avoid the carryover and to equilibrate the column.” left out, “Slope=−k and T1/2=0.693/k for first-order kinetics.” left out"}, "[3]": {"assay": "Brain homogenate stability assay", "details": "mouse brain homogenate, 37° C.", "from_the_text": "General Experimental: Purchases were made for DPBS (1X) (Gibco) and Pierce BCA Assay kit for protein quantification (Thermo Fischer). Frozen mouse brain homogenate was provided by Dr. Scott Myers at Emory University School of Medicine (C57BL/6J adult male mice (Jackson Laboratory), 239 days (34 weeks) old). Briefly, each mouse was euthanized via isoflurane overdose and immediately upon cessation of breathing the chest cavity was opened and the left ventricle punctured with a 21G needle, the vena cava was then clipped and the body perfused with cold PBS (pH 7.35) for 2 min. Following, the brain was removed (on ice) and the forebrain separated from the cerebellum. The forebrain wet weight was recorded and placed into 3 mL ice cold HBSS (Hank's Balanced Salt Solution, pH 7.4), and then homogenized for 10 secs at 3/4 max setting. […] The amount of protein in the mouse brain homogenate was quantified using the Pierce BCA assay kit before running the stability assay.\nProcedure for Brain Homogenate Stability Assay: 10 mM stock solution was prepared in 100% DMSO for each test compound. […] The supernatant was transferred into the HPLC vials, and measured by LC-MS/MS. Half-life (T1/2) was calculated using the data obtained from LC-MS/MS and by plotting ln (% remaining of the parent prodrug) versus time and performing linear regression to determine slope. […]"}, "[4]": {"assay": "Plasma stability (mouse plasma)", "details": "read-out: T½ in mouse plasma (converted)"}}, "data": [{"molecule": "C=C(C)[C@@H]1CCC(C)=C[C@H]1c1c(O)cc(CCCCC)cc1OC(=O)C1(OP(=O)(O)O)CC1.N.N", "note": "[7b, 1-((((1′R,2′R)-6-hydroxy-5′-methyl-4-pentyl-2′-(prop-1-en-2-yl)-1′,2′,3′,4′-tetrahydro-[1,1′-biphenyl]-2-yl)oxy)carbonyl)cyclopropyl phosphate di-ammonium salt]", "values": [{"measurement": "half-life", "setting": "[1]", "result": 2.62, "unit": "h"}, {"measurement": "half-life at 3 μM", "setting": "[2]", "result": 0.55, "unit": "h"}, {"measurement": "brain homogenate stability (metabolism and metabolite formation)", "setting": "[3]", "result": "metabolism of compound 7b and formation of CBD"}, {"measurement": "half-life", "setting": "[4]", "result": 3.7, "unit": "h"}]}]}
